These results are taken from patent publication US6093732A, “4-hydroxyquinoline-3-carboxamides and hydrazides as antiviral agents” (Pharmacia & Upjohn Company, priority 1998, dated 2000).

Holding throughout (format): biochemical
The target of one assay is HSV polymerase (Human herpesvirus 1, UniProt P04293). As to the kind of experiment: HSV polymerase assay (procedure similar to the HCMV polymerase SPA). The following applies: Table 1, read-out: Antiviral Selective Polymerase IC50 Values, HSV. How it is done:
(§1) The HCMV polymerase assay is performed using a scintillation proximity assay (SPA) as described in several references, such as N. D. Cook, et al., Pharmaceutical Manufacturing International, pages 49-53 (1992); K. Takeuchi, Laboratory Practice, September issue (1992); U.S. Pat. No. 4,568,649 (1986); which are incorporated by reference herein. Reactions are performed in 96-well plates. The assay is conducted in 100 μl volume with 5.4 mM HEPES (pH 7.5), 11.7 mM KCl, 4.5 mM MgCl2, 0.36 mg/ml BSA, and 90 nM ^3 H-dTTP. Assays are run with and without CHAPS, (3-[(3-Cholamidopropyl)-dimethylammonio]-1-propane-sulfonate) at a final concentration of 2 mM. HCMV polymerase is diluted in enzyme dilution buffer containing 50% glycerol, 250 mM NaCl, 10 mM HEPES (pH 7.5), 100 μg/ml BSA, and 0.01% sodium azide. The HCMV polymerase, which is expressed in recombinant baculovirus-infected SF-9 cells and purified according to literature procedures, is added at 10% (or 10 μl) of the final reaction volume, i.e., 100 μl. Compounds are diluted in 50% DMSO and 10 μl are added to each well. Control wells contain an equivalent concentration of DMSO. Unless noted otherwise, reactions are initiated via the addition of 6 nM biotinylated poly(dA)-oligo(dT) template/primer to reaction mixtures containing the enzyme, substrate, and compounds of interest. Plates are incubated in a 25° C. or 37° C. H2 O bath and terminated via the addition of 40 μl/reaction of 0.5 M EDTA (pH 8) per well. Reactions are terminated within the time-frame during which substrate incorporation is linear and varied depending upon the enzyme and conditions used, i.e., 30 min. for HCMV polymerase. Ten μl of streptavidin-SPA beads (20 mg/ml in PBS/10% glycerol) are added following termination of the reaction. Plates are incubated 10 min. at 37° C., then equilibrated to room temperature, and counted on a Packard Topcount. Linear regressions are performed and IC50 's are calculated using computer software.
(§2) A modified version of the above HCMV polymerase assay is performed as described above, but with the following changes: Compounds are diluted in 100% DMSO until final dilution into assay buffer. In the previous assay, compounds are diluted in 50% DMSO. 4.5 mM dithiotherotol (DTT) is added to the polymerase buffer. […] Other viral polymerase assays are performed using procedures similar to those described above.

The target of another assay is VZV polymerase (Varicella-zoster virus, UniProt P09252). As to the kind of experiment: VZV polymerase assay (procedure similar to the HCMV polymerase SPA). The following applies: Table 1, read-out: Antiviral Selective Polymerase IC50 Values, VZV. Here is the method:
as §1, §2

A further assay has as its target T1, HCMV polymerase (Human cytomegalovirus, UniProt P08546).
T1 construct: made in house; host or cells: recombinant baculovirus-infected SF-9 cells
The assay can be described thus: HCMV polymerase scintillation proximity assay (SPA), modified version. The following applies: CMV polymerase; Table 1; modified assay with 4.5 mM DTT, compounds in 100% DMSO; read-out: Antiviral Selective Polymerase IC50 Values, CMV. In outline:
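Recombinant polymerase (baculovirus/SF-9) in 5.4 mM HEPES pH 7.5, 11.7 mM KCl, 4.5 mM MgCl2, 0.36 mg/ml BSA, 90 nM 3H-dTTP, ±2 mM CHAPS; started with 6 nM biotinylated poly(dA)-oligo(dT), 25° C or 37° C, EDTA-stopped in linear range (30 min for HCMV). Streptavidin-SPA read; IC50 by linear regression. Modified version: 100% DMSO compound dilution, 4.5 mM DTT added.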

T1 sequence (P08546 whole entry): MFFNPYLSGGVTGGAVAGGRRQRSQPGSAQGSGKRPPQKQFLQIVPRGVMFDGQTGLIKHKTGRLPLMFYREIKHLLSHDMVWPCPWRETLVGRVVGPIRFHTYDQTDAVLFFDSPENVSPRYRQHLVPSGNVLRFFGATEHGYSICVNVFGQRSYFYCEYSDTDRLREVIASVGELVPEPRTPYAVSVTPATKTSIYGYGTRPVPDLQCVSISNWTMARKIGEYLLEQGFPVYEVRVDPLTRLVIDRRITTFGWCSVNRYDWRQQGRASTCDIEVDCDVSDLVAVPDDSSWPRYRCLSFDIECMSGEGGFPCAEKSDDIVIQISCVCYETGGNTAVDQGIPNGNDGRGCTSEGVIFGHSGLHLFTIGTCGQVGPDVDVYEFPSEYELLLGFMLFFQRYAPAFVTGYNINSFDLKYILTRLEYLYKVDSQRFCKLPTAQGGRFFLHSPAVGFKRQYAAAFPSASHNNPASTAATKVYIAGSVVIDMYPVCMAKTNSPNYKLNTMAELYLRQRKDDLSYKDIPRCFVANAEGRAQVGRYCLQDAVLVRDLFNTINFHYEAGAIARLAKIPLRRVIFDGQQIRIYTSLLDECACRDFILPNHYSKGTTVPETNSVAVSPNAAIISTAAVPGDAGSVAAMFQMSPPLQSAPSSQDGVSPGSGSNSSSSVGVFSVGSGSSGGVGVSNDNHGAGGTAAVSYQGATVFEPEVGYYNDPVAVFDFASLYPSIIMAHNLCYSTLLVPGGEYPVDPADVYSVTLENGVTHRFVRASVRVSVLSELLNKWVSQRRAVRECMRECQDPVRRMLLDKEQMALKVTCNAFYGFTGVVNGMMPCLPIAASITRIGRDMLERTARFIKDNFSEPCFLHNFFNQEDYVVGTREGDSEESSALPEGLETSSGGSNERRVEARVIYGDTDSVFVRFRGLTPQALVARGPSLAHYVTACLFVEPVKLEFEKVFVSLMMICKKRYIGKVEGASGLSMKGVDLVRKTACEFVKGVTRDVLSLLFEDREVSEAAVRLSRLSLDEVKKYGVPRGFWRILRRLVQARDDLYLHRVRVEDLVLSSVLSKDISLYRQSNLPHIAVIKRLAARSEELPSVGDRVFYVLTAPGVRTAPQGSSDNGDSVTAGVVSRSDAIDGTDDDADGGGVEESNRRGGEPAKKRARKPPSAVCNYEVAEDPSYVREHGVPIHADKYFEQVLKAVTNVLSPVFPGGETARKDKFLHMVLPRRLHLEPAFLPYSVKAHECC
Sequence of HSV polymerase (P04293 whole entry): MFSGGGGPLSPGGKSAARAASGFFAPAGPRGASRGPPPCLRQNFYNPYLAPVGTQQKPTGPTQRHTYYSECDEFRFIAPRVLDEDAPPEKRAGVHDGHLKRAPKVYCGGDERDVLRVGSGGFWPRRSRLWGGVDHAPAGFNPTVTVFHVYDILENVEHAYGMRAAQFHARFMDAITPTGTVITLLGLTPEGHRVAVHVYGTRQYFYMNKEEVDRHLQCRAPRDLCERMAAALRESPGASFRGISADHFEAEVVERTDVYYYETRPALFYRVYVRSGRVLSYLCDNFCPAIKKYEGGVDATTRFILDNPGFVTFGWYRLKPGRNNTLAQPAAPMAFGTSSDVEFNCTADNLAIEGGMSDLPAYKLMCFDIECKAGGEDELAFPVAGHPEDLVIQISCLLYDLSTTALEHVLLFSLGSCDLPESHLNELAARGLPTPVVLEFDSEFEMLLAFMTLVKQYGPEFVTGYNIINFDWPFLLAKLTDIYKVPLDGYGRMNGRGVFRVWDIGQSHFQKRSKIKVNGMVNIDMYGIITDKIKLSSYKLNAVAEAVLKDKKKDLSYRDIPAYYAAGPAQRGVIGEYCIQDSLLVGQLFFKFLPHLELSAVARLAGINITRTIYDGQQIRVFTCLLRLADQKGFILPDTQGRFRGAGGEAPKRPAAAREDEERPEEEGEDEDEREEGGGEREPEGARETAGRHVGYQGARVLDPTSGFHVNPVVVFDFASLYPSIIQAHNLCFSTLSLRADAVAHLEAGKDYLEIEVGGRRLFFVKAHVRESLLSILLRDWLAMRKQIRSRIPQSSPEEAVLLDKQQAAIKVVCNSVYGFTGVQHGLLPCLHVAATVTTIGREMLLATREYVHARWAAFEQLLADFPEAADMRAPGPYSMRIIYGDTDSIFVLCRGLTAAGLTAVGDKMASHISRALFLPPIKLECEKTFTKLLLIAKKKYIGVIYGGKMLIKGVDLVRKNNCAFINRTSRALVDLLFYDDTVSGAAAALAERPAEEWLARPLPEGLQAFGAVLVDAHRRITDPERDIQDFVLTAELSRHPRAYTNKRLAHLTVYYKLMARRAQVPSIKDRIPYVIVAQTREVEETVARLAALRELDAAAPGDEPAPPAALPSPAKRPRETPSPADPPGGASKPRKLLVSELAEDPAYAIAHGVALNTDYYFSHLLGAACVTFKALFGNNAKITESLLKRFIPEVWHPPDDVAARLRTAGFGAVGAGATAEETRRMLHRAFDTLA
Sequence of VZV polymerase (P09252 whole entry): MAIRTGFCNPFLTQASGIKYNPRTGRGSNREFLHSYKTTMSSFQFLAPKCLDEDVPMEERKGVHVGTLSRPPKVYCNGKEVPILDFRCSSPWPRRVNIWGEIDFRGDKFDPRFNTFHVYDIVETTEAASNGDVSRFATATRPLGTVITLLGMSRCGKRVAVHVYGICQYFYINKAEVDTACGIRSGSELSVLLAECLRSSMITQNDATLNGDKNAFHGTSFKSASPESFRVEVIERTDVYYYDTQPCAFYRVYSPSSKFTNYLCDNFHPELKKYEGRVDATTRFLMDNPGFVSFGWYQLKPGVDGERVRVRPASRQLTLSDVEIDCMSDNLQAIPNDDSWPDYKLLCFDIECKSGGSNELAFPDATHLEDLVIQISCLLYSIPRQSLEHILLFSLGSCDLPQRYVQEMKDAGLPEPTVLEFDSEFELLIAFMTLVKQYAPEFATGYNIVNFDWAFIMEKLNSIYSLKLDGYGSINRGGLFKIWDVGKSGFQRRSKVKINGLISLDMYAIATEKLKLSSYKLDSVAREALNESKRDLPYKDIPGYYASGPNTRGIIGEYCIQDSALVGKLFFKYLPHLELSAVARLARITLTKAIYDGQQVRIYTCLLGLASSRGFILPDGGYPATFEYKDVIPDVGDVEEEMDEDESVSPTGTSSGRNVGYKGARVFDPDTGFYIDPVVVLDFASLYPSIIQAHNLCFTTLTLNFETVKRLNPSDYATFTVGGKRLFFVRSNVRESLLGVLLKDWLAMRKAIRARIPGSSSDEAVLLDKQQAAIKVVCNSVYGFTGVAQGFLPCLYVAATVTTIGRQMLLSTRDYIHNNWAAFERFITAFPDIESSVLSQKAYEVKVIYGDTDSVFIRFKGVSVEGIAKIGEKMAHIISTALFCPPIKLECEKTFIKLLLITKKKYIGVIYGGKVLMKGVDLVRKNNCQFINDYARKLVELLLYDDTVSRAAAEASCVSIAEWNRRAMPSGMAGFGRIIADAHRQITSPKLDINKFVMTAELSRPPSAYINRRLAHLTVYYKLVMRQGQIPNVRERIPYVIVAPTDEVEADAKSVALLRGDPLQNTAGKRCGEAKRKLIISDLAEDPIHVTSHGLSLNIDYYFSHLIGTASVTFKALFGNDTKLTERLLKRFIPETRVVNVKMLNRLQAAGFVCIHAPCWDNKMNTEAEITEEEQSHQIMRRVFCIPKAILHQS

Take `O=C(NCc1ccc(Cl)cc1)c1cnc2cc(C(F)(F)F)ccc2c1O` [Example 1, N-[(4-Chlorophenyl)methyl]-4-hydroxy-7-(trifluoromethyl)-3-quinoline-carboxamide]: the IC50 at HSV polymerase is 35.5 µM; at VZV polymerase, 13.3 µM; at HCMV polymerase, 38.2 µM.
For `Nc1ccc2c(O)c(C(=O)NCc3ccc(Cl)cc3)cnc2c1` [Example 2, 7-Amino-N-[(4-chlorophenyl)methyl]-4-hydroxy-3-quinolinecarboxamide], in that order: 3.5 µM, 0.6 µM and 5.2 µM.
The like results for `O=C(NCc1ccc(Cl)cc1)c1cnc2ccccc2c1O` [Example 6, N-[(4-Chlorophenyl)methyl]-4-hydroxy-3-quinolinecarboxamide] were, in that order, 2.3 µM, 0.7 µM and 7.6 µM.
As for `COc1ccc2c(O)c(C(=O)NCc3ccc(Cl)cc3)cnc2c1` [Example 7, N-[(4-Chlorophenyl)methyl]-4-hydroxy-7-methoxy-3-quinoline-carboxamide], the values for the IC50 at HSV polymerase, on VZV polymerase and on HCMV polymerase were 5.5 µM, 0.7 µM and 4.9 µM, respectively.
The like results for `O=C(NCc1ccc(Cl)cc1)c1cnc2cc(F)ccc2c1O` [Example 9, N-[(4-Chlorophenyl)methyl]-7-fluoro-4-hydroxy-3-quinolinecarboxamide] were, in that order, < 2.3 µM, 2.5 µM and < 2.3 µM.
The like results for `O=C(NCc1ccc(Cl)cc1)c1cnc2ccc(F)cc2c1O` [Example 10, N-[(4-Chlorophenyl)methyl]-6-fluoro-4-hydroxy-3-quinoline-carboxamide] were, in that order, 14 µM, 3.9 µM and 9.7 µM.
For `O=C(NCc1ccc(Cl)cc1)c1cnc2c(F)cccc2c1O` [Example 12, N-[(4-Chlorophenyl)methyl]-8-fluoro-4-hydroxy-3-quinoline-carboxamide], the values for the IC50 at HSV polymerase, on VZV polymerase and at HCMV polymerase were 3.4 µM, < 3.1 µM and 1.4 µM, respectively.
For `O=C(NCc1ccc(Cl)cc1)c1cnc2ccc([N+](=O)[O-])cc2c1O` [Example 13, N-[(4-Chlorophenyl)methyl]-4-hydroxy-6-nitro-3-quinoline-carboxamide], in that order: 3 µM, < 2.3 µM and < 2.3 µM.
As for `O=C(NCc1ccc(Cl)cc1)c1cnc2c(F)c(F)c(F)c(F)c2c1O` [Example 14, N-[(4-Chlorophenyl)methyl]-5,6,7,8-tetrafluoro-4-hydroxy-3-quinolinecarboxamide], the IC50 at HSV polymerase worked out at 7.9 µM; on VZV polymerase it was 3.6 µM; at HCMV polymerase it was 11.5 µM.
Turning to `O=C(NCc1ccc(Cl)cc1)c1cnc2c(F)c(F)c(F)cc2c1O` [Example 15, N-[(4-Chlorophenyl)methyl]-6,7,8-trifluoro-4-hydroxy-3-quinolinecarboxamide], the IC50 on HSV polymerase turned out to be 22 µM; on VZV polymerase, 13.1 µM; at HCMV polymerase, 20.8 µM.
The like results for `O=C(NNc1ccc(Cl)cc1)c1cnc2c(F)c(F)c(F)cc2c1O` [Example 16, 6,7,8-Trifluoro-4-hydroxy-3-quinolinecarboxylic acid 2-(4-chlorophenyl)hydrazide] were, in that order, 2.8 µM, 1.3 µM and 2.7 µM.
Turning to `CC(=O)Nc1ccc2c(O)c(C(=O)NCc3ccc(Cl)cc3)cnc2c1` [Example 25, 7-(Acetylamino)-N-[(4-chlorophenyl)methyl]-4-hydroxy-3-quinolinecarboxamide], the IC50 at HSV polymerase was determined as 18.5 µM; on VZV polymerase it was 8.4 µM; at HCMV polymerase it was 13.5 µM.
The like results for `CS(=O)(=O)Nc1ccc2c(O)c(C(=O)NCc3ccc(Cl)cc3)cnc2c1` [Example 26, N-[(4-Chlorophenyl)methyl]-4-hydroxy-7-[(methylsulfonyl)-amino]-3-quinolinecarboxamide] were, in that order, 25 µM, 14 µM and 17 µM.
The like results for `Nc1ccc2ncc(C(=O)NCc3ccc(Cl)cc3)c(O)c2c1` [Example 28, 6-Amino-N-[(4-chlorophenyl)methyl]-4-hydroxy-3-quinoline-carboxamide] were, in that order, 19.7 µM, 8.3 µM and 18 µM.
The like results for `CS(=O)(=O)Nc1ccc2ncc(C(=O)NCc3ccc(Cl)cc3)c(O)c2c1` [Example 29, N-[(4-Chlorophenyl)methyl]-4-hydroxy-6-[(methylsulfonyl)-amino]-3-quinolinecarboxamide] were, in that order, 70.6 µM, 25.2 µM and 34.1 µM.
Turning to `CN(C)c1ccc2ncc(C(=O)NCc3ccc(Cl)cc3)c(O)c2c1` [Example 30, N-[(4-Chlorophenyl)methyl]-6-(dimethylamino)-4-hydroxy-3-quinolinecarboxamide], the IC50 was determined as 14.3 µM at HSV polymerase, 7.5 µM at VZV polymerase and 10.6 µM on HCMV polymerase.
The like results for `CC(=O)Nc1ccc2ncc(C(=O)NCc3ccc(Cl)cc3)c(O)c2c1` [Example 31, 6-(Acetylamino)-N-[(4-chlorophenyl)methyl]-4-hydroxy-3-quinolinecarboxamide] were, in that order, 81.5 µM, 26 µM and 26.2 µM.
As for `O=C(NCc1ccc(Cl)cc1)c1cnc2cc(-n3cccc3)ccc2c1O` [Example 32, N-[(4-Chlorophenyl)methyl]-4-hydroxy-7-(1-pyrrolyl)-3-quinolinecarboxamide], the results for the IC50 at HSV polymerase, on VZV polymerase and on HCMV polymerase were > 100 µM, 53.8 µM and 22 µM, respectively.
For `O=C(NCc1ccc(Cl)cc1)c1cnc2c(F)cc(C#CCO)cc2c1O` [Example 53, N-[(4-Chlorophenyl)methyl]-8-fluoro-4-hydroxy-6-(3-hydroxy-1-propynyl)-3-quinolinecarboxamide], in that order: 0.64 µM, 0.39 µM and < 0.78 µM.
The like results for `O=C(NCc1ccc(Cl)cc1)c1cnc2c(F)cc(-c3cccs3)cc2c1O` [Example 75, N-[(4-Chlorophenyl)methyl]-8-fluoro-4-hydroxy-6-(2-thiophenyl)-3-quinolinecarboxamide] were, in that order, 0.43 µM, 0.16 µM and 0.17 µM.
For `O=C(NCc1ccc(Cl)cc1)c1cnc2c(F)cc(CCCCO)cc2c1O` [Example 99, N-(4-Chlorobenzyl)-8-fluoro-4-hydroxy-6-(4-hydroxybutyl)-3-quinolinecarboxamide], in that order: 0.2 µM, 0.09 µM and 0.14 µM.
With `CC(C)(O)CCc1cc(F)c2ncc(C(=O)NCc3ccc(Cl)cc3)c(O)c2c1` [Example 106, N-(4-Chlorobenzyl)-8-fluoro-4-hydroxy-6-(3-hydroxy-3-methylbutyl)-3-quinolinecarboxamide], the figures for the IC50 at HSV polymerase, on VZV polymerase and on HCMV polymerase were 16.4 µM, 9.6 µM and 10.3 µM, respectively.
For `O=C(NCc1ccc(Cl)cc1)c1cnc2cc3c(cc2c1O)OCO3` [Example 279, N-(4-Chlorobenzyl)-8-hydroxy[1,3]dioxolo [4,5-g]quinoline-7-carboxamide], on HCMV polymerase, the IC50 worked out at 4.9 µM.
Still for that read-out and setting: to `O=C(c1ccccc1)c1ccc2ncc(C(=O)NCc3ccc(Cl)cc3)c(O)c2c1` [Example 280, 6-Benzoyl-N-(4-chlorobenzyl)-4-hydroxy-3-quinolinecarboxamide] belongs 57.8 µM.
